According to patent US20170291890A1 (Epizyme, Inc., priority 2014, published 2017):

Biological target: T1, KDM5A (Homo sapiens, UniProt P29375)
T1 construct: C-terminal FLAG-tagged KDM5A^1-1090 was purchased from BPS Biosciences; FLAG (C); purchased BPS Biosciences
T1 sequence (P29375 1-1090): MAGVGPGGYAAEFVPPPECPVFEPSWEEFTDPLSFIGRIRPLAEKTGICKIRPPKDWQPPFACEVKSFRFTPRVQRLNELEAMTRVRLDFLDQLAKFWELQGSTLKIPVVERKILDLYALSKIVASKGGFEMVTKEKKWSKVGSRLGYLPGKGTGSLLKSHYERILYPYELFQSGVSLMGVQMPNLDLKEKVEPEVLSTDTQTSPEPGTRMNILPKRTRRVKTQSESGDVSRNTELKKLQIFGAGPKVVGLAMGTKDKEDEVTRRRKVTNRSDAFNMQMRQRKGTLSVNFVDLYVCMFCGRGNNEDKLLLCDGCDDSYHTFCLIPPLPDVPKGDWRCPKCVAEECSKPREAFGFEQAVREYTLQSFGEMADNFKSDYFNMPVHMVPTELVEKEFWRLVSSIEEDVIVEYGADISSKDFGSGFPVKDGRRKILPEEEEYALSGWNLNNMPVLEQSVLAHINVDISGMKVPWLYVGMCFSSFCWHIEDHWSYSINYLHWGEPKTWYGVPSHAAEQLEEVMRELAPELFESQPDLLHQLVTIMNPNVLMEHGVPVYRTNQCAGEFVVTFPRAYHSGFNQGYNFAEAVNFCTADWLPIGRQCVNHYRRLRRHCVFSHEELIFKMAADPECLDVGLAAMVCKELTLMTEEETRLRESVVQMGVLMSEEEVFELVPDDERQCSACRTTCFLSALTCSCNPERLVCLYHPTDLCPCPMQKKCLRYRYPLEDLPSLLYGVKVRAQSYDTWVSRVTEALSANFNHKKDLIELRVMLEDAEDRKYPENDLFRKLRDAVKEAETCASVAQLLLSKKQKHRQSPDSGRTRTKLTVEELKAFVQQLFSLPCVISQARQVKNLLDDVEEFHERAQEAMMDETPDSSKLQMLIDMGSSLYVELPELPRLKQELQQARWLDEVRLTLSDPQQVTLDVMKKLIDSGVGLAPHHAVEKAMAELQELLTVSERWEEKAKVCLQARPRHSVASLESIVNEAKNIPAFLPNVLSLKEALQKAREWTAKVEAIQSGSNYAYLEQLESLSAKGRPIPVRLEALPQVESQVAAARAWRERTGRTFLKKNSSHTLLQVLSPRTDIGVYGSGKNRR
Test: KDM5A Assay (SAMDI mass spectrometry demethylase assay)
Format: biochemical
Conditions: C-terminal FLAG-tagged KDM5A 1-1090; class symbols; read-out: 5A IC50
Method in brief: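 FLAG-tagged KDM5A 1-1090 (20 nM) preincubated 30 min with compound in pH 8.0 HEPES buffer with ascorbate, Fe(II), TCEP, then reacted 150 min at 25 °C with H3K4me3 peptide (250 nM) and 2-oxoglutarate (15 μM). Formic acid-quenched; SAMDI-MS substrate/product AUC conversion; IC50 from dose-response.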

| SMILES | IC50 [nM] |
| --- | --- |
| Cc1c(-c2ccccc2)nn(CCN2CCC(F)(F)CC2)c1Nc1cnccc1C(=O)O [Compound 66, 3-((1-(2-(4,4-difluoropiperidin-1-yl)ethyl)-4-methyl-3-phenyl-1H-pyrazol-5-yl)amino)isonicotinic acid] | 10000 to 100000 |
| Cn1ncc(-c2ccc(F)cc2)c1Nc1cnccc1C(=O)O [Compound 8, 3-((4-(4-fluorophenyl)-1-methyl-1H-pyrazol-5-yl)amino) isonicotinic acid] | 10000 to 100000 |
| O=C(O)c1ccncc1Nc1cnn(CCN2CCC(F)(F)CC2)c1-c1ccccc1 [Compound 18, 3-((1-(2-(4,4-difluoropiperidin-1-yl)ethyl)-5-phenyl-1H-pyrazol-4-yl)amino)isonicotinic acid] | 1000 to 10000 |
| Cc1c(-c2ccccc2)nn(C)c1Nc1cnccc1C(=O)O [Compound 53, 3-((1,4-dimethyl-3-phenyl-1H-pyrazol-5-yl)amino)isonicotinic acid] | 1000 to 10000 |
| O=C(O)c1ccncc1Nc1cc(-c2ccccc2)nn1[C@H]1CC[C@H](O)CC1 [Compound 39, 3-((1-((trans)-4-hydroxycyclohexyl)-3-phenyl-1H-pyrazol-5-yl)amino)isonicotinic acid] | 10000 to 100000 |
| Cn1nc(-c2cccc(Cl)c2)cc1Nc1cnccc1C(=O)O [Compound 25, 3-((3-(3-chlorophenyl)-1-methyl-1H-pyrazol-5-yl)amino) isonicotinic acid] | 1 to 100 |
| Cn1cc(Nc2cnccc2C(=O)O)c(-c2ccccc2)n1 [Compound 13, 3-((1-methyl-3-phenyl-1H-pyrazol-4-yl)amino) isonicotinic acid] | 1000 to 10000 |
| O=C(O)c1ccncc1Nc1nn(CCN2CCC(F)(F)CC2)cc1-c1ccccc1 [Compound 14, 3-((1-(2-(4,4-Difluoropiperidin-1-yl)ethyl)-4-phenyl-1H-pyrazol-3-yl)amino)isonicotinic acid] | 1 to 100 |
| Cc1n[nH]c(-c2ccccc2)c1Nc1cnccc1C(=O)O [Compound 55, 3-((5-methyl-3-phenyl-1H-pyrazol-4-yl)amino)isonicotinic acid] | 1000 to 10000 |
| Cc1cc(Nc2cnccc2C(=O)O)n(C2CCOCC2)n1 [Compound 78, 3-((3-methyl-1-(tetrahydro-2H-pyran-4-yl)-1H-pyrazol-5-yl)amino) isonicotinic acid] | 1000 to 10000 |
| O=C(O)c1ccncc1Nc1nn(C2CCOCC2)cc1-c1ccccc1 [Compound 72, 3-((4-phenyl-1-(tetrahydro-2H-pyran-4-yl)-1H-pyrazol-3-yl)amino)isonicotinic acid] | 100 to 1000 |
| O=C(O)c1ccncc1Nc1c(-c2ccc(F)cc2)cnn1CCN1CCC(F)(F)CC1 [Compound 46, 3-((1-(2-(4,4-difluoropiperidin-1-yl)ethyl)-4-(4-fluorophenyl)-1H-pyrazol-5-yl)amino) isonicotinic acid] | 1000 to 10000 |
| CNC(=O)c1cccc(-n2ncc(Nc3cnccc3C(=O)O)c2C)c1 [Compound 59, 3-((5-methyl-1-(3-(methylcarbamoyl)phenyl)-1H-pyrazol-4-yl)amino) isonicotinic acid] | 1000 to 10000 |
| Cc1nn(C2CCCNCC2)cc1Nc1cnccc1C(=O)O (single isomer, unassigned) [Compound 116] | 100 to 1000 |

Second part, the compound after the results:

| IC50 [nM] | SMILES |
| --- | --- |
| 100 to 1000 | O=C(O)c1ccncc1Nc1nn(CCC(F)(F)F)cc1-c1ccncc1 [Compound 74, 3-((4-(pyridin-4-yl)-1-(3,3,3-trifluoropropyl)-1H-pyrazol-3-yl)amino)isonicotinic acid] |
| 100 to 1000 | CC(C)n1nc(-c2ccccc2)cc1Nc1cnccc1C(=O)O [Compound 22, 3-((1-Isopropyl-3-phenyl-1H-pyrazol-5-yl)amino)isonicotinic acid] |
| 10000 to 100000 | O=C(O)c1ccncc1Nc1c(-c2ccccc2)cnn1-c1ccccc1 [Compound 43, 3-((1,4-Diphenyl-1H-pyrazol-5-yl)amino)isonicotinic acid] |
| 1000 to 10000 | N[C@H]1CC[C@@H](n2nc(-c3ccccc3)cc2Nc2cnccc2C(=O)O)CC1 [Compound 37, 3-((1-((cis)-4-aminocyclohexyl)-3-phenyl-1H-pyrazol-5-yl)amino)isonicotinic acid] |
| 100 to 1000 | Cc1nn(C2CCN(C(=O)c3ccccc3)CC2)cc1Nc1cnccc1C(=O)O [Compound 97, 3-(1-(1-benzoylpiperidin-4-yl)-3-methyl-1H-pyrazol-4-ylamino) isonicotinic acid] |
| 1000 to 10000 | Cc1cc(Nc2cnccc2C(=O)O)n(-c2ccccc2)n1 [Compound 61, 3-((3-methyl-1-phenyl-1H-pyrazol-5-yl)amino) isonicotinic acid] |
| 100 to 1000 | Cc1nn(C2CCN(CC(F)(F)F)CC2)cc1Nc1cnccc1C(=O)O [Compound 99, 3-(3-methyl-1-(1-(2,2,2-trifluoroethyl)piperidin-4-yl)-1H-pyrazol-4-ylamino)isonicotinic acid] |
| 100 to 1000 | Cn1cc(-c2cccc(F)c2)c(Nc2cnccc2C(=O)O)n1 [Compound 9, 3-((4-(3-Fluorophenyl)-1-methyl-1H-pyrazol-3-yl)amino) isonicotinic acid] |
| 1 to 100 | O=C(O)c1ccncc1Nc1nn(CCC(F)(F)F)cc1-c1ccccc1 [Compound 73, 3-((4-phenyl-1-(3,3,3-trifluoropropyl)-1H-pyrazol-3-yl)amino) isonicotinic acid] |
| 100 to 1000 | Cc1c(Nc2cnccc2C(=O)O)cnn1C1CCCN(C)CC1 (stereo not shown) [Compound 112, 3-((5-methyl-1-(1-methylazepan-4-yl)-1H-pyrazol-4-yl)amino)isonicotinic acid] |
| 100 to 1000 | O=C(O)c1ccncc1Nc1nn(CCN2CCC(F)(F)CC2)cc1C1CCCCC1 [Compound 57, 3-((4-cyclohexyl-1-(2-(4,4-difluoropiperidin-1-yl)ethyl)-1H-pyrazol-3-yl)amino)isonicotinic acid] |
| 100 to 1000 | Cn1cc(-c2ccc(F)cc2)c(Nc2cnccc2C(=O)O)n1 [Compound 7, 3-((4-(4-Fluorophenyl)-1-methyl-1H-pyrazol-3-yl)amino) isonicotinic acid] |
| 10000 to 100000 | COC(=O)c1ccncc1Nc1cn(C2CCN(C(C)C)CC2)nc1C [Compound 101, methyl 3-((1-(1-isopropylpiperidin-4-yl)-3-methyl-1H-pyrazol-4-yl)amino)isonicotinate] |
| 1000 to 10000 | O=C(O)c1ccncc1Nc1c(-c2ccccc2)cnn1CCN1CCC(F)(F)CC1 [Compound 15, 3-((1-(2-(4,4-difluoropiperidin-1-yl)ethyl)-4-phenyl-1H-pyrazol-5-yl)amino)isonicotinic acid] |
